Reference: patent publication US10414891B2, “Polyurethane curatives” (The Shepherd Chemical Company, priority 2015, dated 2019)

Columns and labels:
[1] = Accelerated aging of curatives in polyol mix with water and temperature; type: physicochemical; settings: curative 2.0 parts
Excerpt: [Note: polyols supplied to Shepherd as their 4-component polyol systems by Huntsman.] BiCAT 8108 is bismuth neodecanoate, 20 wt % bismuth.

[2] = Moisture stability of curative in polyol side of two-part TDI spray-foam system; type: physicochemical
Protocol: BiCAT 8842 was used in a two-part polyurethane system (TDI) for spray-foam applications. The BiCAT 8842 was added at 0.125 wt % to the polyol side (B-part). In addition, the polyol side contained 2.5 wt % water. […] The same dosage of stannous octoate curative was added to the TDI-tin-based control formulation.

[3] = DAY 1, DI water 2.5 parts, oven 130° F.
[4] = DAY 2, DI water 2.5 parts, oven 130° F.
[5] = DAY 3, DI water 2.5 parts, oven 130° F.
[6] = DAY 4, DI water 2.5 parts, oven 160° F.
[7] = DAY 5, DI water 4.0 parts, oven 160° F.
[8] = DAY 6, DI water 4.0 parts, oven 160° F.

Substance | Stability [1, 3] | Stability [1, 4] | Stability [1, 5] | Stability [1, 6] | Stability [1, 7] | Stability [1, 8] | time until formulation began to turn white (bismuth hydrolysis to the hydroxide) ([2]; same use level, polyol side containing 2.5 wt % water) | stability in the presence of moisture ([2]; 0.125 wt % in polyol side (B-part) containing 2.5 wt % water)
bismuth, 1,1′,1″,1′″-(1,2-ethanediyldinitrilo)tetrakis[2-propanol] neodecanoate complexes [Curative 8840] | transparent | transparent | transparent | transparent | transparent | transparent | – | –
bismuth neodecanoate [reference compound] | – | – | – | – | – | – | ~14 min | –
bismuth neodecanoate [BiCAT 8108, reference compound] | transparent | transparent | transparent | transparent | very sl. hazy | opaque; ppt formation | – | –
bismuth, 2,2′,2″,2′″-(1,2-ethanediyldinitrilo)tetrakis[ethanol] neodecanoate complexes [Curative 8842] | transparent | transparent | transparent | transparent | transparent | transparent | – | remained stable for many weeks
